According to PubChem BioAssay (NCI):
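All cell lines were grown in 96-well plates and treated with compound for 48 hours. TGI marks complete inhibition of growth.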

Assays:
Assay in all cases: inhibition of tumour cell growth, NCI panel, 48 h
786-0 renal = system: 786-0 renal
A498 renal = system: A498 renal
A549 NSCLC = system: A549 NSCLC
ACHN renal = system: ACHN renal
BT-549 breast = system: BT-549 breast
CAKI-1 renal = system: CAKI-1 renal
CCRF-CEM leukemia = system: CCRF-CEM leukemia
COLO 205 colon = system: COLO 205 colon
DU-145 prostate = system: DU-145 prostate
EKVX NSCLC = system: EKVX NSCLC
HCC-2998 colon = system: HCC-2998 colon
HCT-116 colon = system: HCT-116 colon
HCT-15 colon = system: HCT-15 colon
HL-60(TB) leukemia = system: HL-60(TB) leukemia
HOP-92 NSCLC = system: HOP-92 NSCLC
HS 578T breast = system: HS 578T breast
HT29 colon = system: HT29 colon
IGROV1 ovarian = system: IGROV1 ovarian
K-562 leukemia = system: K-562 leukemia
KM12 colon = system: KM12 colon
LOX IMVI melanoma = system: LOX IMVI melanoma
M14 melanoma = system: M14 melanoma
MALME-3M melanoma = system: MALME-3M melanoma
MCF7 breast = system: MCF7 breast
MDA-MB-435 = system: MDA-MB-435
MDA-N = system: MDA-N
MOLT-4 leukemia = system: MOLT-4 leukemia
NCI-H226 lung = system: NCI-H226 lung
NCI-H23 lung = system: NCI-H23 lung
NCI-H522 lung = system: NCI-H522 lung
NCI/ADR-RES ovarian = system: NCI/ADR-RES ovarian
OVCAR-3 ovarian = system: OVCAR-3 ovarian
OVCAR-5 ovarian = system: OVCAR-5 ovarian
PC-3 prostate = system: PC-3 prostate
RXF 393 renal = system: RXF 393 renal
SF-268 CNS = system: SF-268 CNS
SF-295 CNS = system: SF-295 CNS
SF-539 CNS = system: SF-539 CNS
SK-MEL-2 melanoma = system: SK-MEL-2 melanoma
SK-MEL-28 melanoma = system: SK-MEL-28 melanoma
SK-MEL-5 melanoma = system: SK-MEL-5 melanoma
SK-OV-3 ovarian = system: SK-OV-3 ovarian
SN12C renal = system: SN12C renal
SNB-19 CNS = system: SNB-19 CNS
SNB-75 CNS = system: SNB-75 CNS
SR leukemia = system: SR leukemia
SW-620 colon = system: SW-620 colon
T-47D breast = system: T-47D breast
UACC-257 melanoma = system: UACC-257 melanoma
UACC-62 melanoma = system: UACC-62 melanoma
UO-31 renal = system: UO-31 renal
HOP-62 NSCLC = system: HOP-62 NSCLC
OVCAR-4 ovarian = system: OVCAR-4 ovarian
OVCAR-8 ovarian = system: OVCAR-8 ovarian
RPMI-8226 leukemia = system: RPMI-8226 leukemia
NCI-H460 lung = system: NCI-H460 lung

CN(C)c1ccc(C2C(Cl)C(=O)N2NC(=O)c2c(Cl)c(Cl)c(Cl)c(Cl)c2-c2nc3ccccc3[nH]2)cc1 (configuration not stated)
TGI (786-0 renal): 6.2 µM | TGI (A498 renal): 40.2 µM | TGI (A549 NSCLC): > 100 µM | TGI (ACHN renal): 34.6 µM | TGI (BT-549 breast): 33.2 µM | TGI (CAKI-1 renal): 41.1 µM | TGI (CCRF-CEM leukemia): > 100 µM | TGI (COLO 205 colon): 66.1 µM | TGI (DU-145 prostate): 22.5 µM | TGI (EKVX NSCLC): 67.4 µM | TGI (HCC-2998 colon): 30.2 µM | TGI (HCT-116 colon): 23.9 µM | TGI (HCT-15 colon): 32.6 µM | TGI (HL-60(TB) leukemia): 28.8 µM | TGI (HOP-92 NSCLC): 23.9 µM | TGI (HS 578T breast): > 100 µM | TGI (HT29 colon): 68.9 µM | TGI (IGROV1 ovarian): 17.2 µM | TGI (K-562 leukemia): > 100 µM | TGI (KM12 colon): 48.4 µM | TGI (LOX IMVI melanoma): 30 µM | TGI (M14 melanoma): 51.7 µM | TGI (MALME-3M melanoma): 36.3 µM | TGI (MCF7 breast): 23.1 µM | TGI (MDA-MB-435): > 100 µM | TGI (MDA-N): 55.8 µM | TGI (MOLT-4 leukemia): > 100 µM | TGI (NCI-H226 lung): 69.7 µM | TGI (NCI-H23 lung): 29.7 µM | TGI (NCI-H522 lung): 11.9 µM | TGI (NCI/ADR-RES ovarian): > 100 µM | TGI (OVCAR-3 ovarian): 44.7 µM | TGI (OVCAR-5 ovarian): > 100 µM | TGI (PC-3 prostate): 50.9 µM | TGI (RXF 393 renal): 8.96 µM | TGI (SF-268 CNS): 43.5 µM | TGI (SF-295 CNS): > 100 µM | TGI (SF-539 CNS): 57.4 µM | TGI (SK-MEL-2 melanoma): 86.7 µM | TGI (SK-MEL-28 melanoma): > 100 µM | TGI (SK-MEL-5 melanoma): 48.6 µM | TGI (SK-OV-3 ovarian): > 100 µM | TGI (SN12C renal): 38.4 µM | TGI (SNB-19 CNS): 94.3 µM | TGI (SNB-75 CNS): 44.3 µM | TGI (SR leukemia): > 100 µM | TGI (SW-620 colon): > 100 µM | TGI (T-47D breast): 25.2 µM | TGI (UACC-257 melanoma): 44.6 µM | TGI (UACC-62 melanoma): 37.5 µM | TGI (UO-31 renal): 78.5 µM

C(=N\c1cc2cc(Sc3ccccc3)ccc2[nH]1)/c1ccccc1
TGI (786-0 renal): > 12.5 µM | TGI (A498 renal): > 12.5 µM | TGI (A549 NSCLC): > 12.5 µM | TGI (ACHN renal): > 12.5 µM | TGI (BT-549 breast): > 12.5 µM | TGI (CAKI-1 renal): > 12.5 µM | TGI (CCRF-CEM leukemia): > 12.5 µM | TGI (DU-145 prostate): > 12.5 µM | TGI (EKVX NSCLC): > 12.5 µM | TGI (HCC-2998 colon): > 12.5 µM | TGI (HCT-116 colon): > 12.5 µM | TGI (HCT-15 colon): > 12.5 µM | TGI (HL-60(TB) leukemia): > 12.5 µM | TGI (HOP-62 NSCLC): > 12.5 µM | TGI (HOP-92 NSCLC): > 12.5 µM | TGI (HS 578T breast): > 12.5 µM | TGI (HT29 colon): > 12.5 µM | TGI (K-562 leukemia): > 12.5 µM | TGI (KM12 colon): > 12.5 µM | TGI (LOX IMVI melanoma): > 12.5 µM | TGI (M14 melanoma): > 12.5 µM | TGI (MALME-3M melanoma): > 12.5 µM | TGI (MCF7 breast): > 12.5 µM | TGI (MDA-MB-435): > 12.5 µM | TGI (MDA-N): > 12.5 µM | TGI (MOLT-4 leukemia): > 12.5 µM | TGI (NCI-H23 lung): > 12.5 µM | TGI (NCI-H522 lung): > 12.5 µM | TGI (NCI/ADR-RES ovarian): > 12.5 µM | TGI (OVCAR-3 ovarian): > 12.5 µM | TGI (OVCAR-4 ovarian): > 12.5 µM | TGI (OVCAR-8 ovarian): > 12.5 µM | TGI (PC-3 prostate): > 12.5 µM | TGI (RPMI-8226 leukemia): > 12.5 µM | TGI (RXF 393 renal): > 12.5 µM | TGI (SF-268 CNS): > 12.5 µM | TGI (SF-295 CNS): > 12.5 µM | TGI (SF-539 CNS): > 12.5 µM | TGI (SK-MEL-28 melanoma): > 12.5 µM | TGI (SK-MEL-5 melanoma): > 12.5 µM | TGI (SN12C renal): > 12.5 µM | TGI (SNB-19 CNS): > 12.5 µM | TGI (SNB-75 CNS): > 12.5 µM | TGI (SR leukemia): > 12.5 µM | TGI (SW-620 colon): > 12.5 µM | TGI (T-47D breast): > 12.5 µM | TGI (UACC-257 melanoma): > 12.5 µM | TGI (UACC-62 melanoma): > 12.5 µM

CCC(=O)Nc1cccc(NC(=O)c2c(Cl)c(Cl)c(Cl)c(Cl)c2-c2nc3ccccc3[nH]2)c1
TGI (786-0 renal): > 100 µM | TGI (A498 renal): > 100 µM | TGI (A549 NSCLC): > 100 µM | TGI (ACHN renal): > 100 µM | TGI (BT-549 breast): > 100 µM | TGI (CAKI-1 renal): > 100 µM | TGI (CCRF-CEM leukemia): > 100 µM | TGI (COLO 205 colon): > 100 µM | TGI (DU-145 prostate): > 100 µM | TGI (EKVX NSCLC): > 100 µM | TGI (HCC-2998 colon): > 100 µM | TGI (HCT-116 colon): > 100 µM | TGI (HCT-15 colon): > 100 µM | TGI (HL-60(TB) leukemia): > 100 µM | TGI (HOP-92 NSCLC): 66.5 µM | TGI (HS 578T breast): > 100 µM | TGI (HT29 colon): > 100 µM | TGI (IGROV1 ovarian): > 100 µM | TGI (K-562 leukemia): > 100 µM | TGI (KM12 colon): > 100 µM | TGI (LOX IMVI melanoma): > 100 µM | TGI (M14 melanoma): > 100 µM | TGI (MALME-3M melanoma): > 100 µM | TGI (MCF7 breast): > 100 µM | TGI (MDA-MB-435): > 100 µM | TGI (MDA-N): > 100 µM | TGI (MOLT-4 leukemia): > 100 µM | TGI (NCI-H23 lung): > 100 µM | TGI (NCI-H460 lung): > 100 µM | TGI (NCI-H522 lung): > 100 µM | TGI (NCI/ADR-RES ovarian): > 100 µM | TGI (OVCAR-3 ovarian): > 100 µM | TGI (OVCAR-4 ovarian): > 100 µM | TGI (OVCAR-5 ovarian): > 100 µM | TGI (OVCAR-8 ovarian): > 100 µM | TGI (PC-3 prostate): > 100 µM | TGI (RPMI-8226 leukemia): > 100 µM | TGI (RXF 393 renal): > 100 µM | TGI (SF-268 CNS): > 100 µM | TGI (SF-295 CNS): > 100 µM | TGI (SF-539 CNS): > 100 µM | TGI (SK-MEL-2 melanoma): > 100 µM | TGI (SK-MEL-28 melanoma): > 100 µM | TGI (SK-MEL-5 melanoma): > 100 µM | TGI (SN12C renal): > 100 µM | TGI (SNB-19 CNS): > 100 µM | TGI (SNB-75 CNS): > 100 µM | TGI (SR leukemia): > 100 µM | TGI (SW-620 colon): > 100 µM | TGI (T-47D breast): > 100 µM | TGI (UACC-257 melanoma): > 100 µM | TGI (UACC-62 melanoma): > 100 µM | TGI (UO-31 renal): > 100 µM
